{"source": "patent US10793892B2", "about": "“Method for detecting the presence of expanded spectrum β-lactamase-producing bacteria in a sample” (INSERM (INSTITUT NATIONAL DE LA SANTE ET DE LA RECHERCHE …, priority 2011, dated 2020)", "key": {"[1]": {"system": "K. oxytoca", "experiment": "Susceptibility testing, MIC by Etest", "type": "cell-based, Klebsiella oxytoca", "conditions": "K. oxytoca Wild-type penicillinase, n=1", "method": "(§1) Susceptibility testing was performed by determining MIC values using the Etest® (AB bioMérieux; Solna, Sweden) on Mueller-Hinton agar plates at 37° C. and results were recorded according to US guidelines (CLSI), as updated in 2012 (2). The breakpoints for cefotaxime are susceptible (S)≤1 and resistant (R)≥4 μg/ml, and for ceftazidime S≤4 and R≥16 μg/ml."}, "[2]": {"system": "S. enterica", "experiment": "Susceptibility testing, MIC by Etest", "type": "cell-based, Salmonella enterica", "method": "as §1"}, "[3]": {"system": "M. morganii", "experiment": "Susceptibility testing, MIC by Etest", "type": "cell-based, Morganella morganii", "conditions": "M. morganii Wild-type, chromosome-encoded cephalosporinase, n=2", "method": "as §1"}, "[4]": {"system": "K. pneumoniae", "experiment": "Susceptibility testing, MIC by Etest", "type": "cell-based, Klebsiella pneumoniae", "method": "as §1"}, "[5]": {"system": "C. freundii", "experiment": "Susceptibility testing, MIC by Etest", "type": "cell-based, Citrobacter freundii", "method": "as §1"}, "[6]": {"system": "E. cloacae", "experiment": "Susceptibility testing, MIC by Etest", "type": "cell-based, Enterobacter cloacae", "method": "as §1"}, "[7]": {"system": "P. mirabilis", "experiment": "Susceptibility testing, MIC by Etest", "type": "cell-based, Proteus mirabilis", "method": "as §1"}, "[8]": {"system": "S. marcescens", "experiment": "Susceptibility testing, MIC by Etest", "type": "cell-based, Serratia marcescens", "conditions": "S. marcescens Wild-type, chromosome-encoded cephalosporinase, n=2", "method": "as §1"}, "[9]": {"system": "E. aerogenes", "experiment": "Susceptibility testing, MIC by Etest", "type": "cell-based, Enterobacter aerogenes", "method": "as §1"}, "[10]": {"system": "E. coli", "experiment": "Susceptibility testing, MIC by Etest", "type": "cell-based, Escherichia coli", "method": "as §1"}, "[11]": {"system": "C. brakii", "experiment": "Susceptibility testing, MIC by Etest", "type": "cell-based", "conditions": "C. brakii Wild-type, chromosome-encoded cephalosporinase, n=1", "method": "as §1"}, "[12]": {"system": "S. ficaria", "experiment": "Susceptibility testing, MIC by Etest", "type": "cell-based", "conditions": "S. ficaria Wild-type, chromosome-encoded cephalosporinase, n=1", "method": "as §1"}, "[13]": {"system": "E. sakazakii", "experiment": "Susceptibility testing, MIC by Etest", "type": "cell-based", "conditions": "overexpressed chromosome-encoded cephalosporinase, n=1", "method": "as §1"}, "[14]": {"system": "P. stuartii", "experiment": "Susceptibility testing, MIC by Etest", "type": "cell-based, Providencia stuartii", "conditions": "P. stuartii TEM-24, n=1", "method": "as §1"}, "[15]": {"system": "Enterobacteriaceae", "type": "biochemical", "conditions": "all CTX-M producers (n=147); tazobactam added to cefotaxime well", "protocol": "Strains were isolated on Mueller-Hinton agar (Biorad, Marnes-la-Coquette, France) and incubated at 37° C. for 16 h to 24 h before performing the NDP rapid ESBL test as follows. One calibrated inoculated loop (10 μl) of the tested strain was resuspended in 150 μl of 20 mM Tris-HCl lysis buffer previously distributed in Microbead tubes (Ultraclean Microbial DNA isolation kit Bead Tubes, MO BIO Laboratories, Carlsbad, USA). Mechanical lysis of bacteria was performed by strong agitation of Microbead tubes using a vortex adapter (MO BIO Laboratories) for 30 min at room temperature. This bacterial suspension was centrifuged at 10,000×g at room temperature for 5 min. Thirty μl of the supernatant was mixed in a well of a 96-well tray with 100 μl of a 1 ml solution made of 3 mg of purified cefotaxime sodium salt (Sigma-Aldrich, Saint-Quentin-Fallavier, France) in a pH 7.8 phenol red solution. […] The phenol red solution was made by taking 2 ml of a concentrated pH 8 phenol solution (made from a mixture of phenol red 0.5% in distilled water) to which 16.6 ml of distilled water was added. The pH value was then adjusted to a 7.8 value by adding drops of a 1 N NaOH solution. Mixture of the phenol red solution and the enzymatic suspension being tested was incubated at 37° C. for 30 min. Similarly, culture extracts were analyzed in wells containing cefotaxime and tazobactam (4 mg/ml). […]"}}, "data": [{"smiles": "CC(C)(O/N=C(\\C(=O)N[C@@H]1C(=O)N2C(C(=O)[O-])=C(C[n+]3ccccc3)CS[C@H]12)c1csc(N)n1)C(=O)O", "note": "[CAZ, ceftazidime]", "values": [{"measurement": "MICs range", "setting": "[1]", "value": 0.06, "unit": "µg/mL"}, {"measurement": "MICs range", "setting": "[2]; S. enterica CTX-M-1, n=1", "value": 0.75, "unit": "µg/mL"}, {"measurement": "MICs range", "setting": "[2]; S. enterica Wild-type, no resistance, n=1", "value": 0.19, "unit": "µg/mL"}, {"measurement": "MICs range", "setting": "[3]", "value": "0.09 to 1", "unit": "µg/mL"}, {"measurement": "MICs range", "setting": "[4]; K. pneumoniae CTX-M-3, n=1", "value": 1.5, "unit": "µg/mL"}, {"measurement": "MICs range", "setting": "[4]; K. pneumoniae CTX-M-14, n=3", "value": "0.5 to 6", "unit": "µg/mL"}, {"measurement": "MICs range", "setting": "[4]; K. pneumoniae DHA-1, n=1", "value": ">32", "unit": "µg/mL"}, {"measurement": "MICs range", "setting": "[4]; K. pneumoniae DHA-2, n=1", "value": ">32", "unit": "µg/mL"}, {"measurement": "MICs range", "setting": "[4]; K. pneumoniae GES-1, n=1", "value": 4, "unit": "µg/mL"}, {"measurement": "MICs range", "setting": "[4]; K. pneumoniae SHV-2a, n=2", "value": "1 to 4", "unit": "µg/mL"}, {"measurement": "MICs range", "setting": "[4]; K. pneumoniae SHV-2a, n=4", "value": "2 to 4", "unit": "µg/mL"}, {"measurement": "MICs range", "setting": "[4]; K. pneumoniae SHV-5, n=2", "value": "16 to 32", "unit": "µg/mL"}, {"measurement": "MICs range", "setting": "[4]; K. pneumoniae SHV-12, n=1", "value": 8, "unit": "µg/mL"}, {"measurement": "MICs range", "setting": "[4]; K. pneumoniae SHV-12, n=2", "value": "16 to 32", "unit": "µg/mL"}, {"measurement": "MICs range", "setting": "[4]; K. pneumoniae SHV-28, n=3", "value": ">32", "unit": "µg/mL"}, {"measurement": "MICs range", "setting": "[4]; K. pneumoniae TEM-52, n=2", "value": ">32", "unit": "µg/mL"}, {"measurement": "MICs range", "setting": "[4]; K. pneumoniae Wild-type penicillinase, n=2", "value": 0.03, "unit": "µg/mL"}, {"measurement": "MICs range", "setting": "[5]; C. freundii TEM-3, n=1", "value": ">16", "unit": "µg/mL"}, {"measurement": "MICs range", "setting": "[5]; C. freundii Wild-type, chromosome-encoded cephalosporinase, n=1", "value": 0.25, "unit": "µg/mL"}, {"measurement": "MICs range", "setting": "[6]; E. cloacae CTX-M-14, n=1", "value": 8, "unit": "µg/mL"}, {"measurement": "MICs range", "setting": "[6]; E. cloacae CTX-M-15, n=17", "value": "2 to 16", "unit": "µg/mL"}, {"measurement": "MICs range", "setting": "[6]; E. cloacae GES-5, n=1", "value": ">32", "unit": "µg/mL"}, {"measurement": "MICs range", "setting": "[6]; E. cloacae PER-1, n=1", "value": ">32", "unit": "µg/mL"}, {"measurement": "MICs range", "setting": "[6]; E. cloacae SHV-5, n=1", "value": ">32", "unit": "µg/mL"}, {"measurement": "MICs range", "setting": "[6]; E. cloacae TEM-3, n=2", "value": ">16", "unit": "µg/mL"}, {"measurement": "MICs range", "setting": "[6]; E. cloacae VEB-1, n=1", "value": ">32", "unit": "µg/mL"}, {"measurement": "MICs range", "setting": "[6]; E. cloacae Wild-type, chromosome-encoded cephalosporinase, n=5", "value": "0.12 to 0.38", "unit": "µg/mL"}, {"measurement": "MICs range", "setting": "[6]; E. cloacae, overexpressed chromosome-encoded cephalosporinase, n=2", "value": ">32", "unit": "µg/mL"}, {"measurement": "MICs range", "setting": "[6]; E. cloacae, overexpressed chromosome-encoded cephalosporinase, n=3", "value": ">32", "unit": "µg/mL"}, {"measurement": "MICs range", "setting": "[7]; P. mirabilis ACC-1, n=1", "value": ">32", "unit": "µg/mL"}, {"measurement": "MICs range", "setting": "[7]; P. mirabilis CTX-M-14, n=1", "value": 0.75, "unit": "µg/mL"}, {"measurement": "MICs range", "setting": "[7]; P. mirabilis CTX-M-15, n=1", "value": 8, "unit": "µg/mL"}, {"measurement": "MICs range", "setting": "[7]; P. mirabilis PER-1, n=1", "value": ">32", "unit": "µg/mL"}, {"measurement": "MICs range", "setting": "[7]; P. mirabilis TEM-21, n=1", "value": 4, "unit": "µg/mL"}, {"measurement": "MICs range", "setting": "[7]; P. mirabilis TEM-52, n=1", "value": 16, "unit": "µg/mL"}, {"measurement": "MICs range", "setting": "[8]", "value": 0.09, "unit": "µg/mL"}, {"measurement": "MICs range", "setting": "[9]; E. aerogenes TEM-121, n=1", "value": ">32", "unit": "µg/mL"}, {"measurement": "MICs range", "setting": "[9]; E. aerogenes Wild-type, chromosome-encoded cephalosporinase, n=1", "value": 0.25, "unit": "µg/mL"}, {"measurement": "MICs range", "setting": "[10]; E. coli ACC-1, n=1, first line", "value": ">32", "unit": "µg/mL"}, {"measurement": "MICs range", "setting": "[10]; E. coli ACC-1, n=1, second line", "value": ">32", "unit": "µg/mL"}, {"measurement": "MICs range", "setting": "[10]; E. coli CMY-2, n=1", "value": ">32", "unit": "µg/mL"}, {"measurement": "MICs range", "setting": "[10]; E. coli CTX-M-1, n=16", "value": "0.5 to 2", "unit": "µg/mL"}, {"measurement": "MICs range", "setting": "[10]; E. coli CTX-M-2, n=3", "value": "1.5 to 4", "unit": "µg/mL"}, {"measurement": "MICs range", "setting": "[10]; E. coli CTX-M-3, n=1", "value": 4, "unit": "µg/mL"}, {"measurement": "MICs range", "setting": "[10]; E. coli CTX-M-9, n=1", "value": 0.19, "unit": "µg/mL"}, {"measurement": "MICs range", "setting": "[10]; E. coli CTX-M-14, n=15", "value": "0.5 to 4", "unit": "µg/mL"}, {"measurement": "MICs range", "setting": "[10]; E. coli CTX-M-15, n=46", "value": "0.5 to 24", "unit": "µg/mL"}, {"measurement": "MICs range", "setting": "[10]; E. coli CTX-M-27, n=6", "value": "0.5 to 4", "unit": "µg/mL"}, {"measurement": "MICs range", "setting": "[10]; E. coli CTX-M-28, n=1", "value": 8, "unit": "µg/mL"}, {"measurement": "MICs range", "setting": "[10]; E. coli CTX-M-32, n=1", "value": 6, "unit": "µg/mL"}, {"measurement": "MICs range", "setting": "[10]; E. coli CTX-M-97, n=1", "value": 2, "unit": "µg/mL"}, {"measurement": "MICs range", "setting": "[10]; E. coli DHA-1, n=1", "value": 1, "unit": "µg/mL"}, {"measurement": "MICs range", "setting": "[10]; E. coli SHV-2a, n=3", "value": "2 to 4", "unit": "µg/mL"}, {"measurement": "MICs range", "setting": "[10]; E. coli SHV-3, n=1", "value": ">32", "unit": "µg/mL"}, {"measurement": "MICs range", "setting": "[10]; E. coli SHV-12, n=1", "value": 8, "unit": "µg/mL"}, {"measurement": "MICs range", "setting": "[10]; E. coli TEM-1 penicillinase, n=5", "value": "0.09 to 0.12", "unit": "µg/mL"}, {"measurement": "MICs range", "setting": "[10]; E. coli TEM-12, n=1", "value": 8, "unit": "µg/mL"}, {"measurement": "MICs range", "setting": "[10]; E. coli TEM-29, n=2", "value": 4, "unit": "µg/mL"}, {"measurement": "MICs range", "setting": "[10]; E. coli TEM-133, n=1", "value": 12, "unit": "µg/mL"}, {"measurement": "MICs range", "setting": "[10]; E. coli VEB-1, n=1", "value": ">32", "unit": "µg/mL"}, {"measurement": "MICs range", "setting": "[10]; E. coli Wild-type, no resistance, n=5", "value": "0.05 to 0.19", "unit": "µg/mL"}, {"measurement": "MICs range", "setting": "[11]", "value": 0.25, "unit": "µg/mL"}, {"measurement": "MICs range", "setting": "[12]", "value": 0.09, "unit": "µg/mL"}, {"measurement": "MICs range", "setting": "[13]", "value": ">32", "unit": "µg/mL"}, {"measurement": "MICs range", "setting": "[14]", "value": 8, "unit": "µg/mL"}]}, {"smiles": "C[C@]1(Cn2ccnn2)[C@H](C(=O)O)N2C(=O)C[C@H]2S1(=O)=O", "note": "[tazobactam]", "values": [{"measurement": "color of the wells", "setting": "[15]", "value": "remained red"}]}]}
